The values that follow come from patent publication US20260265246A1 (ICAHN SCHOOL OF MEDICINE AT MOUNT SINAI, priority 2021, published 2026).

In assay [1] the target is T1, 5HT2A receptor (Homo sapiens, UniProt P28223). Put plainly: biochemical. It is filed as binding. Further details: expressed in transfected cells; crude membranes.
In assay [2] the target is T1, 5HT2A receptor. Put plainly: cell-based. Further details: expressed in transfected cells; host or cells: HEK293T cells, transient co-transfection. The conditions noted are these: for Emax: HEK-293T.
The target in assay [3] is T1, 5HT2A receptor. Briefly: cell-based. Set-up: expressed in transfected cells; host or cells: HEK293T cells, transient co-transfection. As to conditions: for Emax: HEK-293T. This is another data set of the same source.
The mark [4] stands for this setting: 5HT2A Ki (nM), secondary radioligand binding, Ki from IC50 by Cheng-Prusoff.
The mark [5] stands for this setting: BRET2 Gαq dissociation, HEK293T cells, read-out: 5HT2A Gq EC50.
Setting [6] is: BRET2 Gαq dissociation, HEK293T cells, normalized to 5-HT, read-out: 5HT2A Gq Emax (%).
The mark [7] stands for this setting: 5HT2A β-Arr EC50 (nM), BRET1 beta-arrestin2 recruitment, HEK293T cells.
[8] abbreviates: BRET1 beta-arrestin2 recruitment, HEK293T cells, normalized to 5-HT, read-out: 5HT2A β-Arr Emax (%).
[9] abbreviates: secondary binding assay, Cheng-Prusoff, read-out: 5HT2A Ki.
Where [10] appears, read: BRET2 Gαq dissociation, HEK293T, read-out: 5HTA Gq EC50.
Setting [11] is: BRET2 Gαq dissociation, HEK293T, normalized to 5-HT, read-out: 5HTA Gq Emax (%).
The mark [12] stands for this setting: BRET1 beta-arrestin2 recruitment, HEK293T, read-out: 5HT2A β-Arr EC50.
Where [13] appears, read: BRET1 beta-arrestin2 recruitment, HEK293T, normalized to 5-HT, read-out: 5HT2A β-Arr Emax (%).
The mark [14] stands for this setting: 5HT2A β-Arr EC50 (nM), BRET1 beta-arrestin2 recruitment, HEK293T.
The mark [15] stands for this setting: 5HT2A Gq EC50 (nM), BRET2 Gαq dissociation, HEK293T cells.
Where [16] appears, read: 5HT2A Ki (nM), secondary binding assay, Cheng-Prusoff.
Setting [17] is: 5HTA Gq EC50 (nM), BRET2 Gαq dissociation, HEK293T.
[18] abbreviates: read-out: 5HTA Gq Emax (%), BRET2 Gαq dissociation, HEK293T, normalized to 5-HT.
The mark [19] stands for this setting: read-out: 5HT2A β-Arr Emax (%), BRET1 beta-arrestin2 recruitment, HEK293T, normalized to 5-HT.
[20] abbreviates: secondary radioligand binding, Ki from IC50 by Cheng-Prusoff, read-out: 5HT2A Ki.
The mark [21] stands for this setting: BRET1 beta-arrestin2 recruitment, HEK293T cells, read-out: 5HT2A β-Arr EC50.

SMILES strings stand for the structures. Like-named read-outs stand apart in the source and are kept apart here.

T1 sequence (P28223 whole entry): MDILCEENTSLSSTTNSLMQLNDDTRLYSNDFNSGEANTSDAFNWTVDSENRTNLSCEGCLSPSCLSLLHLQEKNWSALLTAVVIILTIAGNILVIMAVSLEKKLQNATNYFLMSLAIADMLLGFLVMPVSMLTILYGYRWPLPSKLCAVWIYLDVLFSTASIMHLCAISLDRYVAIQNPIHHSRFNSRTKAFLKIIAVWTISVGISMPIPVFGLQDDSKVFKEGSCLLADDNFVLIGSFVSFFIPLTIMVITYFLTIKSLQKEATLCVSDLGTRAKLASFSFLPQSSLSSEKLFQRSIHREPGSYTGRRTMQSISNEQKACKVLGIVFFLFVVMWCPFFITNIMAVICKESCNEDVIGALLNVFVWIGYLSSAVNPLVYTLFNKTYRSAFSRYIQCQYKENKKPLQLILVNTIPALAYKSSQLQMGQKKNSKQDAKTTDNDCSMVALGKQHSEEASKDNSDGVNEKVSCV

As to `Cc1cccc2c(C3=CCCN(C)C3)n[nH]c12` [Example 105, 7-methyl-3-(1-methyl-1,2,5,6-tetrahydropyridin-3-yl)-1H-indazole], affinity in assay [1] (setting [4]) was put at a Ki of 1340 nM. Further, the figures for the EC50 in assay [2] (setting [5]) and in assay [3] (setting [7]) were 35.4 nM and 432 nM, respectively. For the same compound, the Emax in assay [2] (setting [6]) came to 75.4%; in assay [3] (setting [8]) it was 45.7%.
As for `Fc1ccc(Cl)c2[nH]nc(C3=CCCNC3)c12` [Example 131, 7-chloro-4-fluoro-3-(1,2,5,6-tetrahydropyridin-3-yl)-1H-indazole], the Ki in assay [1] (setting [9]) worked out at 47.5 nM. Further, the EC50 came to 7.2 nM in assay [2] (setting [10]) and 17.4 nM in assay [3] (setting [12]). Also, the Emax in assay [2] (setting [11]) was determined as 106%; in assay [3] (setting [13]), 72.7%.
For the compound `Fc1ccc2c(C34CNCC3C4)c[nH]c2c1` (stereo not drawn) [Example 281, 3-(3-azabicyclo[3.1.0]hexan-1-yl)-6-fluoro-1H-indole], in assay [1] (setting [9]), the Ki is 61.9 nM. The EC50 stood at 52.1 nM in assay [2] (setting [10]) and 369 nM in assay [3] (setting [14]). Moreover, the results for the Emax in assay [2] (setting [11]) and in assay [3] (setting [13]) were 66.3% and 27.9%, respectively.
Turning to `CN1CCC=C(c2n[nH]c3cccc(C#N)c23)C1` [Example 99, 3-(1-methyl-1,2,5,6-tetrahydropyridin-3-yl)-1H-indazole-4-carbonitrile], in assay [1] (setting [4]), affinity was put at a Ki of 491 nM. Besides, the values for the EC50 in assay [2] (setting [5]) and in assay [3] (setting [7]) were 96.4 nM and 1010 nM, respectively. In addition, the Emax turned out to be 80% in assay [2] (setting [6]) and 43.8% in assay [3] (setting [8]).
In the case of `CN1CCC=C(c2c[nH]c3cc(Cl)ccc23)C1` [Example 32, 6-chloro-3-(1-methyl-1,2,5,6-tetrahydropyridin-3-yl)-1H-indole], in assay [1] (setting [4]), affinity was put at a Ki of 236 nM. Besides, the EC50 is 304 nM in assay [2] (setting [15]) and 709 nM in assay [3] (setting [7]). The Emax in assay [2] (setting [6]) was found to be 77.5%; in assay [3] (setting [8]), 45.5%.
As to `Fc1cc(Cl)c2[nH]nc(C34CNCC3C4)c2c1` (stereo not drawn) [Example 185, 3-(3-azabicyclo[3.1.0]hexan-1-yl)-7-chloro-5-fluoro-1H-indazole], the Ki in assay [1] (setting [16]) was 6740 nM. The figures for the EC50 in assay [2] (setting [17]) and in assay [3] (setting [14]) were 290 nM and 542 nM, respectively. The Emax in assay [2] (setting [11]) was determined as 78.1%; in assay [3] (setting [13]) it was 46.1%.
Take `Fc1ccc2c(C3=CCCNC3)c[nH]c2n1` [Example 133, 6-fluoro-3-(1,2,5,6-tetrahydropyridin-3-yl)-1H-pyrrolo[2,3-b]pyridine]: in assay [1] (setting [16]), the Ki worked out at 292 nM. Moreover, the results for the EC50 in assay [2] (setting [17]) and in assay [3] (setting [14]) were 166 nM and 897 nM, respectively. Besides, the maximal effect (Emax) in assay [2] (setting [18]) stood at 77.2%; in assay [3] (setting [19]), 38.1%.
In the case of `Clc1ccc2[nH]cc(C3=CCCNC3)c2c1` [Example 22, 5-chloro-3-(1,2,5,6-tetrahydropyridin-3-yl)-1H-indole], the inhibitory constant (Ki) in assay [1] (setting [20]) is 44.3 nM. For the same compound, the figures for the EC50 in assay [2] (setting [5]) and in assay [3] (setting [21]) were 7.2 nM and 78.4 nM, respectively. The Emax in assay [2] (setting [6]) turned out to be 102%; in assay [3] (setting [8]) it was 77.3%.
For `CCCc1cccc2c(C3=CCCN(CC)C3)c[nH]c12` [Example 245, 3-(1-ethyl-1,2,5,6-tetrahydropyridin-3-yl)-7-propyl-1H-indole], in assay [1] (setting [16]), affinity was put at a Ki of 600 nM. Besides, the concentration giving a half-maximal response (EC50) in assay [2] (setting [17]) was 392 nM; in assay [3] (setting [14]) it was 1300 nM. The values for the Emax in assay [2] (setting [18]) and in assay [3] (setting [19]) were 87.5% and 44.8%, respectively.
For the compound `CN1CCC=C(c2c[nH]c3c(Cl)c(F)ccc23)C1` [Example 128, 7-chloro-6-fluoro-3-(1-methyl-1,2,5,6-tetrahydropyridin-3-yl)-1H-indole], the Ki in assay [1] (setting [9]) was 15.3 nM. For the same compound, the EC50 in assay [2] (setting [10]) was determined as 11.9 nM; in assay [3] (setting [12]), 66.1 nM. Further, the values for the Emax in assay [2] (setting [11]) and in assay [3] (setting [13]) were 89.2% and 56.5%, respectively.
On to `C=CCc1cccc2c(C3=CCCN(C)C3)c[nH]c12` [Example 257, 7-allyl-3-(1-methyl-1,2,5,6-tetrahydropyridin-3-yl)-1H-indole], for which, in assay [1] (setting [9]), the Ki was 97 nM. For the same compound, the EC50 in assay [2] (setting [10]) worked out at 44.9 nM; in assay [3] (setting [14]), 105 nM. Besides, the Emax in assay [2] (setting [11]) stood at 90.7%; in assay [3] (setting [13]), 52.1%.
Consider `Clc1cccc2c(-c3cncnc3)n[nH]c12` [Example 216, 7-chloro-3-(pyrimidin-5-yl)-1H-indazole], for which the Ki in assay [1] (setting [16]) came to 4390 nM. The figures for the concentration giving a half-maximal response (EC50) in assay [2] (setting [17]) and in assay [3] (setting [14]) were 27.5 nM and 729 nM, respectively. Besides, the Emax in assay [2] (setting [11]) was found to be 85.1%; in assay [3] (setting [13]), 53.8%.
In turn, `Fc1cc(Cl)c2[nH]cc(C34CNCC3C4)c2c1` (stereo not drawn) [Example 279, 3-(3-azabicyclo[3.1.0]hexan-1-yl)-7-chloro-5-fluoro-1H-indole] returned a Ki in assay [1] (setting [16]) of 75.2 nM. Also, the EC50 in assay [2] (setting [17]) worked out at 110 nM; in assay [3] (setting [14]), 380 nM. Besides, the Emax amounted to 98.6% in assay [2] (setting [18]) and 60.9% in assay [3] (setting [19]).
`COc1cccc2[nH]cc(C3=CCCNC3)c12` [Example 18, 4-methoxy-3-(1,2,5,6-tetrahydropyridin-3-yl)-1H-indole]: in assay [1] (setting [20]), the Ki worked out at 50.5 nM. For the same compound, the EC50 in assay [2] (setting [5]) amounted to 3.9 nM; in assay [3] (setting [21]), 71.2 nM. The Emax in assay [2] (setting [6]) was 96.1%; in assay [3] (setting [8]), 51.8%.
Compound `Cc1cccc2c(C3=CCCN(Cc4ccccc4)C3)c[nH]c12` [Example 68, 3-(1-benzyl-1,2,5,6-tetrahydropyridin-3-yl)-7-methyl-1H-indole] had a Ki in assay [1] (setting [4]) of 115 nM. The 50% effective concentration (EC50) in assay [2] (setting [15]) was determined as 127 nM; in assay [3] (setting [7]) it was 490 nM. Moreover, the Emax came out at 40.2% in assay [2] (setting [6]) and 42.4% in assay [3] (setting [8]).
As for `Cc1cccc2c(C3=CCCNC3)n[nH]c12` [Example 88, 7-methyl-3-(1,2,5,6-tetrahydropyridin-3-yl)-1H-indazole], affinity in assay [1] (setting [4]) was put at a Ki of 211 nM. Besides, the figures for the half-maximal effective concentration (EC50) in assay [2] (setting [5]) and in assay [3] (setting [7]) were 52.8 nM and 227 nM, respectively. Further, the Emax in assay [2] (setting [6]) turned out to be 72.6%; in assay [3] (setting [8]), 64.8%.
Turning to `CN1CCC=C(c2c[nH]c3cccc(-c4ccccc4)c23)C1` [Example 21, 3-(1-methyl-1,2,5,6-tetrahydropyridin-3-yl)-4-phenyl-1H-indole], the affinity in assay [1] (setting [4]) corresponds to a Ki of 14 nM. Moreover, the EC50 in assay [2] (setting [15]) stood at 874 nM; in assay [3] (setting [7]), 358 nM. The Emax in assay [2] (setting [6]) was determined as 59.6%; in assay [3] (setting [8]) it was 15.1%.
`CN1CCC=C(c2n[nH]c3c(Cl)cccc23)C1` [Example 106, 7-chloro-3-(1-methyl-1,2,5,6-tetrahydropyridin-3-yl)-1H-indazole] registered a Ki in assay [1] (setting [4]) of 332 nM. Also, the EC50 in assay [2] (setting [5]) was determined as 39.1 nM; in assay [3] (setting [7]), 176 nM. In addition, the Emax in assay [2] (setting [6]) was found to be 85.5%; in assay [3] (setting [8]), 66.8%.
`N#Cc1cccc2c(C3=CCCNC3)n[nH]c12` [Example 91, 3-(1,2,5,6-tetrahydropyridin-3-yl)-1H-indazole-7-carbonitrile] registered an inhibition constant Ki in assay [1] (setting [4]) of 237 nM. Moreover, the EC50 in assay [2] (setting [5]) was 17.2 nM; in assay [3] (setting [7]), 105 nM. Besides, the Emax in assay [2] (setting [6]) is 126%; in assay [3] (setting [8]), 86%.
In assay [1] (setting [4]), `CCc1cccc2c(C3=CCCNC3)n[nH]c12` [Example 121, 7-ethyl-3-(1,2,5,6-tetrahydropyridin-3-yl)-1H-indazole] yielded a Ki of 422 nM. The EC50 in assay [2] (setting [5]) is 20.2 nM; in assay [3] (setting [21]) it was 75.8 nM. The maximum response (Emax) in assay [2] (setting [6]) worked out at 103%; in assay [3] (setting [8]), 85.7%.
For `CN1CCC=C(c2c[nH]c3c(C(F)(F)F)cccc23)C1` [Example 59, 3-(1-methyl-1,2,5,6-tetrahydropyridin-3-yl)-7-(trifluoromethyl)-1H-indole], in assay [1] (setting [20]), the Ki is 25.8 nM. Besides, the EC50 came out at 17.8 nM in assay [2] (setting [5]) and 75.5 nM in assay [3] (setting [21]). In addition, the values for the Emax in assay [2] (setting [6]) and in assay [3] (setting [8]) were 81.7% and 56.9%, respectively.

One may read the Ki as the dissociation constant of the complex between target and ligand, obtained from inhibition or displacement. For orientation: EC50 means the concentration at which the effect is half-maximal. Usually Emax stands for the greatest response seen or fitted, relative to the assay's reference.
